Measured values as given in US10294248B2, “Beta-lactamase inhibitors” (VenatoRx Pharmaceuticals, Inc., priority 2013, dated 2019).

Experiments:
[1] = system: K. pneumoniae A-1797 expressing KPC-2 and VIM-4; test: Broth microdilution MIC, K. pneumoniae A-1797 KPC-2/VIM-4; format: cell-based; conditions: fixed 4 μg/mL meropenem; CAMHB, 16-20 hours at 37° C.
Procedure, shortened: (§1)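 Following CLSI broth microdilution, β-lactamase-producing strains grown 3–5 h were exposed in CAMHB to 2-fold dilutions of test compound (32 to 0.25 μg/mL final). A static 4 μg/mL β-lactam overlay was added. After 16–20 h at 37° C, MIC was scored by eye.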

[2] = system: E. coli ESBL4 expressing CTX-M-15; test: Broth microdilution MIC, E. coli ESBL4 CTX-M-15; format: cell-based; conditions: fixed 4 μg/mL ceftazidime; CAMHB, 16-20 hours at 37° C.
Procedure, shortened: as §1

[3] = target: T1, KPC-2 β-lactamase (Class A carbapenemase) (Klebsiella pneumoniae, UniProt Q9F663); test: β-Lactamase inhibition, KPC-2; format: biochemical; conditions: imipenem substrate, 300 nm; 15 min preincubation at 37° C., PBS pH 7.4
T1 construct: made in house; host or cells: E. coli BL21(DE3)
T1 sequence (Q9F663 25-293, looked up): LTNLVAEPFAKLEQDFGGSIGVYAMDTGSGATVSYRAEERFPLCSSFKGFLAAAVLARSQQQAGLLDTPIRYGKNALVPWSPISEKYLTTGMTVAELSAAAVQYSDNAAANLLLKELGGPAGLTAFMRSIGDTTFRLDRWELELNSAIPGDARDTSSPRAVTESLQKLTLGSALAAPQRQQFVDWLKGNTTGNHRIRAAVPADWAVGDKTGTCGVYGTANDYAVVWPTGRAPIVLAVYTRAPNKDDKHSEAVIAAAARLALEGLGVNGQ
Procedure, shortened: (§2)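 Compounds are mixed with purified, untagged recombinant β-lactamase and held 15 min at 37 °C. Substrate is then added: nitrocefin (100 μM final) for OXA-1, imipenem for KPC-2, cefotaxime for SHV-5. Absorbance is followed immediately, and percent inhibition per concentration gives the IC50.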

[4] = target: T2, SHV-5 β-lactamase (Class A ESBL) (Klebsiella pneumoniae, UniProt P0A3M1); test: β-Lactamase inhibition, SHV-5; format: biochemical
T2 construct: made in house; host or cells: E. coli BL21(DE3)
T2 sequence (P0A3M1 22-286): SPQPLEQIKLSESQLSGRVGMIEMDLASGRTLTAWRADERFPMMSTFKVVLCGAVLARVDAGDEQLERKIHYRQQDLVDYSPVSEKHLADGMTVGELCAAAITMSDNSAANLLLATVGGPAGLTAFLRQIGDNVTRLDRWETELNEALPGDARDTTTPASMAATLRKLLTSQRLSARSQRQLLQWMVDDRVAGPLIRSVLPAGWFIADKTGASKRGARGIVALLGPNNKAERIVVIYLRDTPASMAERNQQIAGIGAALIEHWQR
Procedure, shortened: as §2

[5] = system: K. pneumoniae 156319 expressing KPC-3; test: Broth microdilution MIC, K. pneumoniae 156319 KPC-3; format: cell-based; conditions: fixed 4 μg/mL meropenem; CAMHB, 16-20 hours at 37° C.
Procedure, shortened: as §1

[6] = system: P. aeruginosa Ps296 expressing VIM-2; test: Broth microdilution MIC, P. aeruginosa Ps296 VIM-2; format: cell-based; conditions: fixed 4 μg/mL meropenem; CAMHB, 16-20 hours at 37° C.
Procedure, shortened: as §1

[7] = system: S. aureus MSSA-7 producing penicillinase PC-1; test: Broth microdilution MIC, S. aureus MSSA-7 PC-1; format: cell-based; conditions: fixed 4 μg/mL piperacillin; CAMHB, 16-20 hours at 37° C.
Procedure, shortened: as §1

[8] = target: T3, p99 AmpC β-lactamase (Class C) (Enterobacter cloacae, UniProt P05364); test: β-Lactamase inhibition, p99 AmpC; format: biochemical
T3 construct: made in house; host or cells: E. coli BL21(DE3)
T3 sequence (P05364 21-381): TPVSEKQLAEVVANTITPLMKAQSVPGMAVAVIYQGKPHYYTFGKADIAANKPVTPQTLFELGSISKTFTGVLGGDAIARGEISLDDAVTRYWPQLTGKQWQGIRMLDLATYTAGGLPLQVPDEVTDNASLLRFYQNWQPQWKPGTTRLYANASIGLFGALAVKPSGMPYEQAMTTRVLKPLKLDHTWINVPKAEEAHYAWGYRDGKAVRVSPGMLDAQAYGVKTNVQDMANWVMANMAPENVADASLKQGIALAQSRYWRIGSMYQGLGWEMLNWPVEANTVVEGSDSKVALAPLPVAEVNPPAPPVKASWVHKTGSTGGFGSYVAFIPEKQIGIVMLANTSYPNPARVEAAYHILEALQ

[9] = target: T4, VIM-2 metallo-β-lactamase (Class B) (Pseudomonas aeruginosa, UniProt Q9K2N0); test: β-Lactamase inhibition, VIM-2; format: biochemical; conditions: nitrocefin 100 μM, 486 nm; 15 min preincubation at 37° C., PBS pH 7.4
T4 construct: made in house; host or cells: E. coli BL21(DE3)
Procedure, shortened: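 Nitrocefin hydrolysis (100 μM final, A486 read for 10 min) by purified VIM-2 after a 15-min, 37° C enzyme–inhibitor preincubation. IC50 is the concentration halving initial hydrolysis rate, derived from percent inhibition against no-inhibitor wells.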

[10] = system: E. cloacae 144200 expressing Class C P99 AmpC; test: Broth microdilution MIC, E. cloacae 144200 p99 AmpC; format: cell-based; conditions: fixed 4 μg/mL ceftazidime; CAMHB, 16-20 hours at 37° C.
Procedure, shortened: as §1

[11] = target: T5, OXA-1 β-lactamase (Class D oxacillinase) (Escherichia coli, UniProt P13661); test: β-Lactamase inhibition, OXA-1; format: biochemical; conditions: nitrocefin 100 μM, 486 nm; 15 min preincubation at 37° C., PBS pH 7.4
T5 construct: made in house; host or cells: E. coli BL21(DE3)
T5 sequence (P13661 26-276): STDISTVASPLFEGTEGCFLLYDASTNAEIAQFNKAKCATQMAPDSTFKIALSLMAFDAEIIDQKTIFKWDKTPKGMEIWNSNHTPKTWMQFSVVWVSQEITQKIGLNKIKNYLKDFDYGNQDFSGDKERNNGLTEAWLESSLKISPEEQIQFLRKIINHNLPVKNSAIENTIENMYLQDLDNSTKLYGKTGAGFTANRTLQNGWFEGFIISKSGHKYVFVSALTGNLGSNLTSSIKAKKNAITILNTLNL
Procedure, shortened: as §2

| SMILES | MIC of example compound in presence of fixed β-lactam: Fixed Mero, K. P. A-1797 KPC-2 VIM-4 [1] | MIC of example compound in presence of fixed β-lactam: Fixed CAZ, E. coli ESBL4 CTX-M-15 [2] | IC50 [3] [nM] | IC50 [4] [nM] | MIC of example compound in presence of fixed β-lactam: Fixed Mero, K. P. 156319 KPC-3 [5] | MIC of example compound in presence of fixed β-lactam: Fixed Mero, P. aerug. Ps296 VIM-2 [6] | MIC of example compound in presence of fixed β-lactam: Fixed Pip, S. aureus MSSA-7 PC-1 [7] | IC50 [8] [nM] | IC50 [9] [nM] | MIC of example compound in presence of fixed β-lactam: Fixed CAZ, E. cl. 144200 p99 AmpC [10] | IC50 [11] [nM] |
| --- | --- | --- | --- | --- | --- | --- | --- | --- | --- | --- | --- |
| O=C(CN1CCN(c2ccccn2)CC1)N[C@H]1Cc2cccc(C(=O)O)c2OB1O [Example 2, 2-Hydroxy-3-[2-(4-pyridin-2-yl-piperazin-1-yl)-acetylamino]-3,4-dihydro-2H-benzo[e][1,2]oxaborinine-8-carboxylic acid] | A (an MIC of the fixed β-lactam antibiotic in the presence of >32 μg/mL of a β-lactamase inhibitor) | C (the MIC in the presence of <4 μg/mL of a β-lactamase inhibitor) | 100 to 1000 | < 100 | B (the MIC in the presence of between 8 and 32 μg/mL of a β-lactamase inhibitor) | A (an MIC of the fixed β-lactam antibiotic in the presence of >32 μg/mL of a β-lactamase inhibitor) | C (the MIC in the presence of <4 μg/mL of a β-lactamase inhibitor) | < 100 | 1000 to 10000 | C (the MIC in the presence of <4 μg/mL of a β-lactamase inhibitor) | 100 to 1000 |
| CN1CCC(CC(=O)N[C@H]2Cc3cccc(C(=O)O)c3OB2O)CC1 [Example 45, 2-Hydroxy-3-[2-(1-methyl-piperidin-4-yl)-acetylamino]-3,4-dihydro-2H-benzo[e][1,2]oxaborinine-8-carboxylic acid] | C (the MIC in the presence of <4 μg/mL of a β-lactamase inhibitor) | C (the MIC in the presence of <4 μg/mL of a β-lactamase inhibitor) | < 100 | < 100 | C (the MIC in the presence of <4 μg/mL of a β-lactamase inhibitor) | C (the MIC in the presence of <4 μg/mL of a β-lactamase inhibitor) | B (the MIC in the presence of between 8 and 32 μg/mL of a β-lactamase inhibitor) | < 100 | 100 to 1000 | C (the MIC in the presence of <4 μg/mL of a β-lactamase inhibitor) | 100 to 1000 |
| O=C(O)c1cccc2c1OB(O)[C@@H](NC(=O)C1CNC1)C2 [Example 46, (R)-3-(azetidine-3-carboxamido)-2-hydroxy-3,4-dihydro-2H-benzo[e][1,2]oxaborinine-8-carboxylic acid] | A (an MIC of the fixed β-lactam antibiotic in the presence of >32 μg/mL of a β-lactamase inhibitor) | C (the MIC in the presence of <4 μg/mL of a β-lactamase inhibitor) | 100 to 1000 | < 100 | B (the MIC in the presence of between 8 and 32 μg/mL of a β-lactamase inhibitor) | A (an MIC of the fixed β-lactam antibiotic in the presence of >32 μg/mL of a β-lactamase inhibitor) | C (the MIC in the presence of <4 μg/mL of a β-lactamase inhibitor) | < 100 | 1000 to 10000 | C (the MIC in the presence of <4 μg/mL of a β-lactamase inhibitor) | 100 to 1000 |
| NCCN1CCN(CC(=O)N[C@H]2Cc3cccc(C(=O)O)c3OB2O)CC1 [Example 16, 3-{2-[4-(2-Amino-ethyl)-piperazin-1-yl]-acetylamino}-2-hydroxy-3,4-dihydro-2H-benzo[e][1,2]oxaborinine-8-carboxylic acid] | B (the MIC in the presence of between 8 and 32 μg/mL of a β-lactamase inhibitor) | C (the MIC in the presence of <4 μg/mL of a β-lactamase inhibitor) | 100 to 1000 | < 100 | C (the MIC in the presence of <4 μg/mL of a β-lactamase inhibitor) | C (the MIC in the presence of <4 μg/mL of a β-lactamase inhibitor) | C (the MIC in the presence of <4 μg/mL of a β-lactamase inhibitor) | < 100 | 1000 to 10000 | C (the MIC in the presence of <4 μg/mL of a β-lactamase inhibitor) | < 100 |
| NCCNC1CCN(CC(=O)N[C@H]2Cc3cccc(C(=O)O)c3OB2O)CC1 [Example 30, 3-{2-[4-(2-Amino-ethylamino)-piperidin-1-yl]-acetylamino}-2-hydroxy-3,4-dihydro-2H-benzo[e][1,2]oxaborinine-8-carboxylic acid] | A (an MIC of the fixed β-lactam antibiotic in the presence of >32 μg/mL of a β-lactamase inhibitor) | C (the MIC in the presence of <4 μg/mL of a β-lactamase inhibitor) | < 100 | < 100 | C (the MIC in the presence of <4 μg/mL of a β-lactamase inhibitor) | B (the MIC in the presence of between 8 and 32 μg/mL of a β-lactamase inhibitor) | A (an MIC of the fixed β-lactam antibiotic in the presence of >32 μg/mL of a β-lactamase inhibitor) | < 100 | 1000 to 10000 | C (the MIC in the presence of <4 μg/mL of a β-lactamase inhibitor) | < 100 |
| NCC1CN(CC(=O)N[C@H]2Cc3cccc(C(=O)O)c3OB2O)CCC1N (stereo partly drawn) [Example 29, 3-[2-(4-Amino-3-aminomethyl-piperidin-1-yl)-acetylamino]-2-hydroxy-3,4-dihydro-2H-benzo[e][1,2]oxaborinine-8-carboxylic acid] | B (the MIC in the presence of between 8 and 32 μg/mL of a β-lactamase inhibitor) | C (the MIC in the presence of <4 μg/mL of a β-lactamase inhibitor) | 100 to 1000 | 1000 to 10000 | C (the MIC in the presence of <4 μg/mL of a β-lactamase inhibitor) | C (the MIC in the presence of <4 μg/mL of a β-lactamase inhibitor) | C (the MIC in the presence of <4 μg/mL of a β-lactamase inhibitor) | 100 to 1000 | 10000 to 100000 | C (the MIC in the presence of <4 μg/mL of a β-lactamase inhibitor) | 100 to 1000 |
